From PubChem BioAssay (NCI)
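Values below derive from 48-hour exposures of cells grown in 96-well plates, with endpoints linearly interpolated between the two concentrations bracketing the appropriate inhibition level. TGI denotes the concentration required for complete inhibition of growth.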

Key:
Experiment in all cases: NCI tumour cell line growth inhibition, 48 h
A549 NSCLC = test system: A549 NSCLC
ACHN renal = test system: ACHN renal
BT-549 breast = test system: BT-549 breast
DU-145 prostate = test system: DU-145 prostate
HT29 colon = test system: HT29 colon
KM12 colon = test system: KM12 colon
NCI-H226 lung = test system: NCI-H226 lung
NCI-H522 lung = test system: NCI-H522 lung
NCI/ADR-RES ovarian = test system: NCI/ADR-RES ovarian
SK-MEL-5 melanoma = test system: SK-MEL-5 melanoma
SK-OV-3 ovarian = test system: SK-OV-3 ovarian

| Structure (SMILES) | TGI (A549 NSCLC) | TGI (ACHN renal) | TGI (BT-549 breast) | TGI (DU-145 prostate) | TGI (HT29 colon) | TGI (KM12 colon) | TGI (NCI-H226 lung) | TGI (NCI-H522 lung) | TGI (NCI/ADR-RES ovarian) | TGI (SK-MEL-5 melanoma) | TGI (SK-OV-3 ovarian) |
| --- | --- | --- | --- | --- | --- | --- | --- | --- | --- | --- | --- |
| COC(=O)CCc1cc(O)c2c(c1)C(C(=O)OC)C(c1ccc(O)c(O)c1)O2 (stereo unspecified) | > 100 µM | > 100 µM | > 100 µM | > 83 µM | > 96.4 µM | > 46.5 µM | > 75 µM | > 100 µM | > 100 µM | 20.4 µM | > 93 µM |
| COc1cc(OC)cc(-c2nc3cc(F)ccc3s2)c1 | > 100 µM | 29.8 µM | 24.7 µM | > 100 µM | > 100 µM | > 100 µM | 37.8 µM | 45.5 µM | > 100 µM | > 100 µM | 31.4 µM |
| Cc1ccc(/C=C2\CCC/C(=C\c3ccc(O)c(CN4CCCCC4)c3)C2=O)cc1 | > 49.3 µM | 18.6 µM | 23.9 µM | 16.6 µM | 3.78 µM | 8.33 µM | 23.3 µM | 17.9 µM | 12 µM | 19.1 µM | 26.3 µM |
| CCn1c2ccccc2n2c(=O)c3c(c(C#N)c12)CCCC3 | > 100 µM | > 100 µM | > 100 µM | > 100 µM | > 100 µM | > 100 µM | > 100 µM | > 100 µM | > 100 µM | > 100 µM | > 100 µM |
| COC(=O)C1C(=O)C=CN([C@H](C)c2ccccc2)[C@@H]1Cc1ccc(OC)c(OCc2ccccc2)c1I (stereo partly specified) | 71.9 µM | 70 µM | 38 µM | 42.6 µM | 26.7 µM | 52 µM | 32.7 µM | 36.8 µM | 42.9 µM | 27.4 µM | > 100 µM |
| O=C1CCCC2(c3ccccc3)Nc3ccccc3N12 (stereo unspecified) | > 100 µM | > 100 µM | > 100 µM | > 100 µM | > 100 µM | > 100 µM | > 100 µM | > 100 µM | > 100 µM | > 100 µM | > 100 µM |
